From patent US20140303164A1, “THERAPEUTIC COMPOUNDS” (Gilead Sciences, Inc., priority 2013, published 2014) come the findings set out here.

A short description of data set [1]: Test B: Cytotoxicity Assay. The note with it: human, uninfected MT-4 cells, same protocol as Test A. In kind it is cell-based. The procedure, abridged: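 Uninfected MT-4 cells (2000 per well) incubated with diluted compound at 37° C. for 5 days, following the antiviral protocol without HIV-IIIb.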
The subject of another data set is HIV-IIIb. The data set can be described thus: Test A: Antiviral Assay in MT4 Cells. The conditions noted are these: Human immunodeficiency virus 1, IIIB, MT4, 120 h; for inhibition at 0.2 µM: read-out: % inhibition at 0.2 μM; for inhibition at 2 µM: read-out: % inhibition at 2 μM. In kind it is cell-based, HIV-1. The protocol:
Test A: Antiviral Assay in MT4 Cells
MT-4 cells were next mixed with HIV-IIIb at an m.o.i of 0.003 for 1 hour, after which time 35 μL of virus/cell mixture (2000 cells) was immediately added to each well containing 40 μL of diluted compound. The plates were then incubated at 37° C. for 5 days. […] Cell lysis was carried out by incubating at room temperature for 10 min and then chemiluminescence was read.

Take `Cn1nc(NC(=O)C(F)F)c2c(Cl)ccc(-c3ccc(C#CC(C)(C)O)nc3[C@H](Cc3cc(F)cc(F)c3)NC(=O)Cn3nc(C(F)F)c4c3C(F)(F)[C@@H]3C[C@H]43)c21` [Compound 97, N-(4-chloro-7-(2-((S)-1-(2-((3b-S,4aR)-3-(difluoromethyl)-5,5-difluoro-3b,4,4a,5-tetrahydro-1H-cyclopropa[3,4]cyclopenta[1,2-c]pyrazol-1-yl)acetamido)-2-(3,5-difluorophenyl)ethyl)-6-(3-hydroxy-3-methylbut-1-yn-1-yl)pyridin-3-yl)-1-methyl-1H-indazol-3-yl)-2,2-difluoroacetamide]: in data set [1], the CC50 – broadly, the concentration at which the toxic effect on the cells reaches its halfway point – at 5 days was found to be 7.6 µM. Besides, in the data set on HIV-IIIb, the inhibition – broadly, how much of the control response was suppressed – at 0.2 µM was 100% and the inhibition at 2 µM worked out at 100%.
Consider `Cn1nc(NS(N)(=O)=O)c2cccc(-c3ccc(C#CC(C)(C)O)nc3[C@H](Cc3cc(F)cc(F)c3)NC(=O)Cn3nc(C(F)F)c4c3C(F)(F)[C@@H]3C[C@H]43)c21` [Compound 54, 2-((3b-S,4aR)-3-(difluoromethyl)-5,5-difluoro-3b,4,4a,5-tetrahydro-1H-cyclopropa[3,4]cyclopenta[1,2-c]pyrazol-1-yl)-N—((S)-2-(3,5-difluorophenyl)-1-(6-(3-hydroxy-3-methylbut-1-yn-1-yl)-3-(1-methyl-3-(sulfamoylamino)-1H-indazol-7-yl)pyridin-2-yl)ethyl)acetamide], for which it took 8.08 µM to reach half-maximal cytotoxicity in data set [1] (CC50 at 5 days). Also, in the data set on HIV-IIIb, the inhibition at 0.2 µM was 98% and the inhibition at 2 µM was 98%.
Take `COc1ccc2[nH]cc(CC(=O)N[C@@H](Cc3cc(F)cc(F)c3)c3nc(C#CC(C)(C)O)ccc3-c3ccc(Cl)c4c(NS(C)(=O)=O)nn(C)c34)c2n1` [Compound 194, (S)—N-(1-(3-(4 chloro-1-methyl-3-(methylsulfonamido)-1H-indazol-7-yl)-6-(3-hydroxy-3-methylbut-1-yn-1-yl)pyridin-2-yl)-2-(3,5-difluorophenyl)ethyl)-2-(5-methoxy-1H-pyrrolo[3,2-b]pyridin-3-yl)acetamide]: the CC50 at 5 days in data set [1] turned out to be 21.3 µM. Besides, in the data set with HIV-IIIb, the inhibition at 0.2 µM was found to be 84% and the inhibition at 2 µM was 99%.
The corresponding values for `Cn1nc(NC(=O)N2CCOCC2)c2cccc(-c3ccc(C#CC(C)(C)O)nc3[C@H](Cc3cc(F)cc(F)c3)NC(=O)Cn3nc(C(F)(F)F)c4c3C(F)(F)[C@@H]3C[C@H]43)c21` [Compound 52, N-(7-(2-((S)-1-(2-((3bS,4aR)-5,5-difluoro-3-(trifluoromethyl)-3b,4,4a,5-tetrahydro-1H-cyclopropa[3,4]cyclopenta[1,2-c]pyrazol-1-yl)acetamido)-2-(3,5-difluorophenyl)ethyl)-6-(3-hydroxy-3-methylbut-1-yn-1-yl)pyridin-3-yl)-1-methyl-1H-indazol-3-yl)morpholine-4-carboxamide] are 31.8 µM, 92% and 93%.
Regarding `Cn1nc(NS(C)(=O)=O)c2c(Cl)ccc(-c3ccc(-c4ncccn4)nc3[C@H](Cc3cc(F)cc(F)c3)NC(=O)Cn3nc(C(F)(F)F)c4c3C(F)(F)[C@@H]3C[C@H]43)c21` [Compound 176, N—((S)-1-(3-(4-chloro-1-methyl-3-(methylsulfonamido)-1H-indazol-7-yl)-6-(pyrimidin-2-yl)pyridin-2-yl)-2-(3,5-difluorophenyl)ethyl)-2-((3b-S,4aR)-5,5-difluoro-3-(trifluoromethyl)-3b,4,4a,5-tetrahydro-1H-cyclopropa[3,4]cyclopenta[1,2-c]pyrazol-1-yl)acetamide], the cytotoxic concentration (CC50) at 5 days in data set [1] came out at 17.4 µM. Besides, in the data set with HIV-IIIb, the inhibition at 0.2 µM worked out at 100% and the inhibition at 2 µM was determined as 100%.
Consider `CC(C)(C)C#Cc1ccc(-c2ccc(Cl)n3c(NS(C)(=O)=O)nnc23)c([C@H](Cc2cc(F)cc(F)c2)NC(=O)Cn2nc(C(F)F)c3c2C(F)(F)[C@@H]2C[C@H]32)n1` [Compound 118, N—((S)-1-(3-(5-chloro-3-(methylsulfonamido)-[1,2,4]triazolo[4,3-a]pyridin-8-yl)-6-(3,3-dimethylbut-1-yn-1-yl)pyridin-2-yl)-2-(3,5-difluorophenyl)ethyl)-2-((3b-S,4aR)-3-(difluoromethyl)-5,5-difluoro-3b,4,4a,5-tetrahydro-1H-cyclopropa[3,4]cyclopenta[1,2-c]pyrazol-1-yl)acetamide], for which, in data set [1], the CC50 at 5 days was found to be 23.9 µM. Further, in the data set on HIV-IIIb, the inhibition at 0.2 µM worked out at 96% and the inhibition at 2 µM turned out to be 96%.
For the compound `Cc1ccc(-c2ccc(C#CC(C)(C)O)nc2[C@H](Cc2cc(F)cc(F)c2)NC(=O)Cn2nc(C(F)F)c3c2C(F)(F)[C@@H]2C[C@H]32)c2c1c(N)nn2C` [Compound 58G, N—((S)-1-(3-(3-amino-1,4-dimethyl-1H-indazol-7-yl)-6-(3-hydroxy-3-methylbut-1-yn-1-yl)pyridin-2-yl)-2-(3,5-difluorophenyl)ethyl)-2-((3b-S,4aR)-3-(difluoromethyl)-5,5-difluoro-3b,4,4a,5-tetrahydro-1H-cyclopropa[3,4]cyclopenta[1,2-c]pyrazol-1-yl)acetamide], in data set [1], the midpoint of cytotoxicity, the CC50 at 5 days, lay at 8.44 µM. Further, in the data set with HIV-IIIb, the inhibition at 0.2 µM came out at 95% and the inhibition at 2 µM turned out to be 95%.
In the case of `CC(=O)Nc1nn(CC(=O)N[C@@H](Cc2cc(F)cc(F)c2)c2nc(C#CC(C)(C)O)ccc2-c2ccc(Cl)c3c(NS(C)(=O)=O)nn(C)c23)c2c1[C@H]1C[C@H]1C2(F)F` [Compound 163, 2-((3bS,4aR)-3-acetamido-5,5-difluoro-3b,4,4a,5-tetrahydro-1H-cyclopropa[3,4]cyclopenta[1,2-c]pyrazol-1-yl)-N—((S)-1-(3-(4-chloro-1-methyl-3-(methylsulfonamido)-1H-indazol-7-yl)-6-(3-hydroxy-3-methylbut-1-yn-1-yl)pyridin-2-yl)-2-(3,5-difluorophenyl)ethyl)acetamide], the CC50 at 5 days in data set [1] came out at 8.85 µM. Further, in the data set with HIV-IIIb, the inhibition at 0.2 µM was found to be 79% and the inhibition at 2 µM was 86%.
On the same counts, the results for `Cn1nc(NS(C)(=O)=O)c2c(Cl)ccc(-c3ccc(C#CC(C)(C)O)nc3[C@H](Cc3cc(F)cc(F)c3)NC(=O)Cn3nc(C(F)F)c4c3C(F)(F)CCC4(F)F)c21` [Compound 82, (S)—N-(1-(3-(4 chloro-1-methyl-3-(methylsulfonamido)-1H-indazol-7-yl)-6-(3-hydroxy-3-methylbut-1-yn-1-yl)pyridin-2-yl)-2-(3,5-difluorophenyl)ethyl)-2-(3-(difluoromethyl)-4,4,7,7-tetrafluoro-4,5,6,7-tetrahydro-1H-indazol-1-yl)acetamide] are 9.7 µM, 99% and 99%.
On the same counts, the results for `Cc1n[nH]c2cccc(-c3ccc(C#CC(C)(C)O)nc3[C@H](Cc3cc(F)cc(F)c3)NC(=O)Cn3nc(C(F)(F)F)c4c3C(F)(F)[C@@H]3C[C@H]43)c12` [Compound 79, 2-((3bS,4aR)-5,5-difluoro-3-(trifluoromethyl)-3b,4,4a,5-tetrahydro-1H-cyclopropa[3,4]cyclopenta[1,2-c]pyrazol-1-yl)-N—((S)-2-(3,5-difluorophenyl)-1-(6-(3-hydroxy-3-methylbut-1-yn-1-yl)-3-(3-methyl-1H-indazol-4-yl)pyridin-2-yl)ethyl)acetamide] are 4.72 µM, 100% and 100%.
On the same counts, the results for `C[C@H](O)C#Cc1ccc(-c2ccc(Cl)c3c(NS(C)(=O)=O)nn(C)c23)c([C@H](Cc2cc(F)cc(F)c2)NC(=O)Cn2nc(C(F)F)c3c2C(F)(F)[C@@H]2C[C@H]32)n1` [Compound 142, N—((S)-1-(3-(4-chloro-1-methyl-3-(methylsulfonamido)-1H-indazol-7-yl)-6-((S)-3-hydroxybut-1-yn-1-yl)pyridin-2-yl)-2-(3,5-difluorophenyl)ethyl)-2-((3bS,4aR)-3-(difluoromethyl)-5,5-difluoro-3b,4,4a,5-tetrahydro-1H-cyclopropa[3,4]cyclopenta[1,2-c]pyrazol-1-yl)acetamide] are 12.6 µM, 92% and 92%.
The compound `CNc1cc(-c2ccc(Cl)c3c(NS(C)(=O)=O)nn(C)c23)c([C@H](Cc2cc(F)cc(F)c2)NC(=O)Cn2nc(C(F)F)c3c2C(F)(F)[C@@H]2C[C@H]32)nc1C#CC(C)(C)O` [Compound 182L, N—((S)-1-(3-(4-chloro-1-methyl-3-(methylsulfonamido)-1H-indazol-7-yl)-6-(3-hydroxy-3-methylbut-1-yn-1-yl)-5-(methylamino)pyridin-2-yl)-2-(3,5-difluorophenyl)ethyl)-2-((3b-S,4aR)-3-(difluoromethyl)-5,5-difluoro-3b,4,4a,5-tetrahydro-1H-cyclopropa[3,4]cyclopenta[1,2-c]pyrazol-1-yl)acetamide] displayed a 50% cytotoxic concentration (CC50) at 5 days in data set [1] of 9.83 µM. For the same compound, in the data set on HIV-IIIb, the inhibition at 0.2 µM stood at 100% and the inhibition at 2 µM came to 100%.
Take `Cn1nc(NS(C)(=O)=O)c2cccc(-c3ccc(C#CC(C)(C)CO)nc3[C@H](Cc3cc(F)cc(F)c3)NC(=O)Cn3nc(C(F)(F)F)c4c3C(F)(F)[C@@H]3C[C@H]43)c21` [Compound 63, 2-((3bS,4aR)-5,5-difluoro-3-(trifluoromethyl)-3b,4,4a,5-tetrahydro-1H-cyclopropa[3,4]cyclopenta[1,2-c]pyrazol-1-yl)-N—((S)-2-(3,5-difluorophenyl)-1-(6-(4-hydroxy-3,3-dimethylbut-1-yn-1-yl)-3-(1-methyl-3-(methylsulfonamido)-1H-indazol-7-yl)pyridin-2-yl)ethyl)acetamide]: the CC50 at 5 days in data set [1] is 8.89 µM. Further, in the data set with HIV-IIIb, the inhibition at 0.2 µM is 91% and the inhibition at 2 µM was 91%.
